“Also recorded” adds a separate entry of the source.
Assays:
[1] = test system: fragile X syndrome patients; settings: cited from earlier work
schizophrenia patients = settings: cited from earlier work
hippocampal slices = settings: cited from earlier work
[2] = test system: cyclothiazide binding site; settings: cited from earlier work
[3] = test system: hippocampal slices (CA1 population spikes)
Procedure: Slice Seizure Assay In these studies extracellular field potentials recording (Population Spikes) in hippocampal slices were used to determine convulsant activity (potential seizure liability). Transverse 300-400 μm hippocampal slices were taken from adult male Sprague-Dawley rats (4-6 week old) and incubated in a submerge slice recording chamber system for 30 to 60 min. The chamber was perfused with oxygenated artificial cerebral spinal fluid (ACSF) comprising (in mM): NaCl 124, KCl 3.0, KH2PO4 1.25, CaCl2.34, MgSO4 2.5, NaHCO3 26 and glucose 10 at room temperature. Population Spike (PS) recordings were made with glass electrodes filled with 2 M NaCl (1-5 megaohm) places in the region of pyramidal cell body of CA1. Electrical stimuli were produced with twisted bipolar nichrome wire electrodes in the Schaffer-commissural fiber afferents. Population spike was induced by activating Schaffer-commissural fiber using single pulse stimulation with delivered at 0.05 Hz. The maximal amplitude of PS was determined by increase stimulating intensity till second spike appears. Then the intensity was decreased to induce a 50% to 60% of maximal response. The amplitude of PS was measured for each response and plotted against time. At same time the amplitude of second PS and/or number of PS was measured and plotted against time. The size of the second PS and numbers of PS were used to estimate the seizure potential or seizure state. With 20 to 50 min stable baseline established testing compound was perfused for 10 to 20 min at each concentration to observe the effect. […] The perfusion then was switched to control ACSF and continued to record until drug effect was washed back to the baseline. CX717 and CX1739 exemplary test ampakine compounds were prepared by dissolving in DMSO and then added to ACSF.
The upper 3 panels of FIG. 5 show amplitudes for PS 1, 2 and 3 m respectively. Lower panel is the measurement of the number of PS.

BDNF production = settings: 16 uM; cited from earlier work

O=C(c1ccc2nccnc2c1)N1CCCCC1 [CX516]
memory, language use, attention, executive and overall functioning [1]: did not exhibit improved memory | cognition tests versus placebo groups (schizophrenia patients; add-on to clozapine, olanzapine or risperidone, weeks 4 or 8): did not significantly differ | adverse side effects (schizophrenia patients; four weeks treatment): fatigue, epigastric discomfort and insomnia | generalized discharges in hippocampal slices (hippocampal slices): do not | binding to the cyclothiazide binding site [2]: does not bind to the cyclothiazide binding site

O=C(c1ccc2c(c1)OCCO2)N1CCCCC1 [CX546]
generalized discharges in hippocampal slices (hippocampal slices): produce generalized discharges | binding to the cyclothiazide binding site [2]: binds to the cyclothiazide binding site

O=C1c2cc3c(cc2OC2CCCN12)OCCO3 (stereo not shown) [CX614, reference compound]
seizure / convulsant activity ([3]; 16 uM): demonstrated seizure potential activity; also recorded: unacceptable convulsant activity | BDNF production in hippocampal slices (BDNF production): significantly increases BDNF production

picrotoxin [reference compound]
seizure activity (population spikes) ([3]; 50 μM perfusion): induced a seizure like activity at the level of second PS but not third PS
